Peptide text beside a SMILES is read from it. * marks the point of attachment. X1 = CC1(C)C(/C=C/C2=C(Oc3ccc(S(=O)(=O)O)cc3)C(=C\C=C3/N(CCCCCC(=O)NCCN4C(=O)CC(*)C4=O)c4ccc(S(=O)(=O)O)cc4C3(C)C)/CCC2)=[N+](CCCCS(=O)(=O)O)c2ccc(S(=O)(=O)[O-])cc21
Legend:
[1] = system: 5M7101 pancreatic adenocarcinoma cells (αvβ6+ and αvβ8-); assay: binding of peptide-IRDye conjugates to cultured 5M7101 cells; assay type: cell-based, murine; settings: 0.32-200 nM, 1 h, 37 °C; bound NIR fluorescence
Experimental: To assess the binding of peptide-IRDye conjugates to cells various amounts of conjugates (range 0.32-200 nM) were added to cultured cells and left to incubate for 1 h at 37 °C. After three washings, the cells were fixed and analyzed by scanning the plate with the Odyssey CLx.
A control conjugate with a cysteine in place of the peptide was also prepared in parallel. The identity of the purified products, called 5a-IRDye, 2a-IRDye, and Cys-IRDye, was confirmed by mass spectrometry analysis (Table S1). In addition, the purity and identity of 5a-IRDye was monitored by liquid chromatography–mass spectrometry (LC-MS). […]
that the product consist of a single peak at 230 and 735 nm with the expected molecular weight (purity >95%) (Figure S3A).
(§1) The simplified molecular-input line-entry system (SMILES) of 5a-, 2a-, Cys- and 5a-Scr- […]
The concentration of each conjugate was quantified by spectrophotometric analysis at 774 nm (molar absorption coefficient, 240,000 M-1, cm-1) (Figure S3B). […]
The binding of peptide-IRDye conjugates to BxPC-3, 5M7101, and HUVECs cells was analyzed as follows. […]
chloride and 1% BSA (binding buffer) for 5 min. […] Binding of conjugates to cells was quantified by scanning the plate (filled with PBS, 100 µl/well) with the Odyssey CLx (LI-COR) using the above settings, except that the scan focus offset and scan intensity were set to 4 and 8.5, respectively. […]

Human αvβ8 = molecular target: T1, Human αvβ8 (Homo sapiens, UniProt P06756+P26012); assay: direct integrin binding assay of peptide-IRDye conjugates, human αvβ8-coated plates; settings: plates coated with recombinant human αvβ8; conjugate 0.01-100 nM, 1 h; bound NIR fluorescence; mean ± SE, n = 2 experiments
T1 construct: purchased Bio-Techne
T1 sequence (P06756 31-992 limits assumed): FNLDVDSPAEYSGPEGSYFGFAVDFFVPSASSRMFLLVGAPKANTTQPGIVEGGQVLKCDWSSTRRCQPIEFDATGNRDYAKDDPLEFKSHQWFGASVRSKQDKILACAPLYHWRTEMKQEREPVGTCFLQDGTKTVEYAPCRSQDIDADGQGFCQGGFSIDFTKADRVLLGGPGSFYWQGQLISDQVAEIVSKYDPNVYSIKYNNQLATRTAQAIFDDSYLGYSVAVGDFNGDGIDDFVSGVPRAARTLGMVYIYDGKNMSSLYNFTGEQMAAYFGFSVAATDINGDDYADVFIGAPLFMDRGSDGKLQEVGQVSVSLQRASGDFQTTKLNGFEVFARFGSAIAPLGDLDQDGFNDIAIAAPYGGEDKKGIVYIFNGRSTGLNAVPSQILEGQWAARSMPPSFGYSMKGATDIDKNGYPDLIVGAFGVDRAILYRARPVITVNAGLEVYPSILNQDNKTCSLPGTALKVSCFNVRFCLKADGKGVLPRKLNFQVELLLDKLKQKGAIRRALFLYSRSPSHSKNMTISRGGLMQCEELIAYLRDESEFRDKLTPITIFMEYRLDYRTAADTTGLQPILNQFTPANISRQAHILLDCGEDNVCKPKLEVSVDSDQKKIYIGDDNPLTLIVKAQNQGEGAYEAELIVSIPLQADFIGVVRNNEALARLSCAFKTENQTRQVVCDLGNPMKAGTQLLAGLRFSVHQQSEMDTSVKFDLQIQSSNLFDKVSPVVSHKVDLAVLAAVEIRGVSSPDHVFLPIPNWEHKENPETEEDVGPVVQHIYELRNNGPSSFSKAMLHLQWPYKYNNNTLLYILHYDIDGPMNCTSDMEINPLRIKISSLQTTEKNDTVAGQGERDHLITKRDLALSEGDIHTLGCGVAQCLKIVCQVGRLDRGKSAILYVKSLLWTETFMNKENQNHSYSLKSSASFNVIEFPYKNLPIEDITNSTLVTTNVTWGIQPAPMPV
T1 sequence (P26012 43-684 limits assumed): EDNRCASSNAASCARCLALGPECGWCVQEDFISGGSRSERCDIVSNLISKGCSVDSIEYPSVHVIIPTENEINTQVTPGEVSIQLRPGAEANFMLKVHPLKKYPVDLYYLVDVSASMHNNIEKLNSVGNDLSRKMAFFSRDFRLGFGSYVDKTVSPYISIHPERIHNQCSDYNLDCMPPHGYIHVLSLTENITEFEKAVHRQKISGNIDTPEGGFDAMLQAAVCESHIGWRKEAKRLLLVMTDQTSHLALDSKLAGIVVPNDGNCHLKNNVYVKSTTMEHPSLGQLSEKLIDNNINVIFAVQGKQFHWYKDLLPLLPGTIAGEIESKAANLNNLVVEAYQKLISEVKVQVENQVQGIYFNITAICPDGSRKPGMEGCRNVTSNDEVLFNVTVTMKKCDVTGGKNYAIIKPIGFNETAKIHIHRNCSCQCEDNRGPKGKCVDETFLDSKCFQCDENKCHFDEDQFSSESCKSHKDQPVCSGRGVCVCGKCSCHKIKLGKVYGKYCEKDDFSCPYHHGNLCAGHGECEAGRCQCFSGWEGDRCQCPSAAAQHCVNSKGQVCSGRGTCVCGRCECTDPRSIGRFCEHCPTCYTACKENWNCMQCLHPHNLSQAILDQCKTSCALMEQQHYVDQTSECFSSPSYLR
Experimental: The affinity of peptide-IRDye conjugates for αvβ6 and αvβ8 integrins was determined by a direct binding assay using microtiter plates coated with αvβ6 or αvβ8 (Bio-Techne). After 1 h of incubation, the plates were washed; bound fluorescence was quantified by scanning the plates with an Odyssey CLx near-infrared fluorescence imaging system (LI-COR). […]
as §1
The concentration of each conjugate was quantified by spectrophotometric analysis at 774 nm (molar absorption coefficient, 240,000 M-1, cm-1) (Figure S3B). The final yield of 5a-IRDye […]
Binding of peptide-IRDye conjugates to avb6 and avb8 integrin
The binding affinity of peptide-IRDye conjugates for human and murine avb6 and avb8 integrins was determined as follows: 96-well clear-bottom black microtiter plates (Corning® cat. 3601) were coated with 2 μg/ml avb6 or avb8 (50 µl/well), in Dulbecco’s phosphate-buffered saline containing Ca2+ and Mg2+ (DPBS) and left to incubate overnight at 4°C. […]
conjugates were added to the microtiterplates and incubated at room temperature for 1 h (see Experimental Section). After washing, bound fluorescence was measured using an Odyssey CLx (LI-COR) scanner. Representative images of the scanned plates and quantification of binding are shown. […]

SMILES | binding of conjugate to 5M7101 cells [1] | EC50 (Human αvβ8)
CC1(C)C(/C=C/C2=C(Oc3ccc(S(=O)(=O)O)cc3)C(=C\C=C3/N(CCCCCC(=O)NCCN4C(=O)CC(SC[C@H](N)C(=O)O)C4=O)c4ccc(S(=O)(=O)O)cc4C3(C)C)/CCC2)=[N+](CCCCS(=O)(=O)O)c2ccc(S(=O)(=O)[O-])cc21 (stereo partly drawn) [Cys-IRDye] | little or no binding | > 100 nM
CC[C@H](C)[C@H](NC(=O)[C@H](CCCNC(=N)N)NC(=O)[C@H](CCC(=O)O)NC(=O)[C@H](CCC(=O)O)NC(=O)CNC(=O)[C@H](CCCNC(=N)N)NC(=O)[C@H](CC(C)C)NC(=O)[C@@H](NC(=O)[C@H](CCC(=O)O)NC(=O)[C@H](Cc1ccccc1)NC(=O)[C@@H](N)CSC1CC(=O)N(CCNC(=O)CCCCCN2/C(=C\C=C3\CCCC(/C=C/C4=[N+](CCCCS(=O)(=O)O)c5ccc(S(=O)(=O)[O-])cc5C4(C)C)=C3Oc3ccc(S(=O)(=O)O)cc3)C(C)(C)c3cc(S(=O)(=O)O)ccc32)C1=O)[C@@H](C)O)C(=O)N[C@@H](CC(C)C)C(=O)N[C@@H](CO)C(=O)N[C@H](C(=O)N[C@@H](CC(C)C)C(=O)N[C@@H](CCCNC(=N)N)C(=O)N[C@@H](Cc1c[nH]cn1)C(=O)N[C@@H](CCC(N)=O)C(=O)N[C@@H](CC(N)=O)C(=O)N[C@@H](CC(C)C)C(=O)N[C@@H](CC(C)C)C(=O)N[C@@H](CCCCN)C(=O)N[C@@H](CCC(=O)O)C(=O)N[C@@H](CC(C)C)C(=O)N[C@@H](CCC(N)=O)C(=O)N[C@@H](CC(=O)O)C(N)=O)[C@@H](C)CC (stereo partly drawn) [2a-IRDye] (H-C(X1)FETLRGEERILSILRHQNLLKELQD-NH2) | – | > 100 nM
